{"source": "ChEMBL document CHEMBL1150526", "about": "“Isolation and X-ray crystal structure of racemic Xestospongin D from the Singapore marine sponge Niphates sp1” (1996)", "type_in_all_cases": "functional", "key": {"Breast cancer cell line": {"test_system": "Breast cancer cell line", "test": "Compound was evaluated for its activity to inhibit growth of human breast cancer cell line"}, "Leukemia cell": {"test_system": "Leukemia cell", "test": "Compound was evaluated for its activity to inhibit growth of human leukemia cancer cell line"}, "P388": {"test_system": "P388", "test": "Compound was evaluated for its activity to inhibit growth of murine P388 lymphocytic leukemia", "conditions": "Mus musculus, read-out: ED50 (the source's name)"}, "Micrococcus luteus": {"test_system": "Micrococcus luteus", "test": "Compound was evaluated for the inhibition of growth of Micrococcus luteus; (12.5-25 ug/disk)"}}}
{"smiles": "O[C@@]12CCCCCC[C@H]3CCN4CCC[C@H](CCCCCC[C@H]5CCN(CCC1)[C@@H]2O5)[C@H]4O3", "note": "[XESTOSPONGIN D]", "values": [{"measurement": "GI50", "setting": "Breast cancer cell line", "value": 4.53, "unit": "µM"}, {"measurement": "GI50", "setting": "Leukemia cell", "value": 3.62, "unit": "µM"}, {"measurement": "EC50", "setting": "P388", "value": 1.7, "unit": "µg/mL"}, {"measurement": "MIC", "setting": "Micrococcus luteus", "value": 25, "unit": "ug disk-1"}]}
